Results on five molecules are retold here after patent publication US7589123B2, “Chemical compounds” (Phytopharm PLC, priority 2006, dated 2009).

In data set [1] the test system is 5-HT-induced contractions in guinea pig ileum. The data set is described as follows: Inhibition of 5-HT-induced contractions in guinea pig ileum (Assay 3). The conditions noted are these: Cavia porcellus, 5-HT 2.6 μM, read-out: Inhibition of 5-HT-induced contraction (%). The procedure, abridged:
(§1)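 Ileal strips from male Duncan Hartley guinea pigs were held at 1 g tension in 32° C oxygenated Krebs (pH 7.4) with isotonic transducers. After control contractions to 5-HT (2.6 μM) or histamine (1.7 μM), compound at 3 and 30 μM was added, its own effect noted, and agonist re-applied.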

Data set [2] concerns histamine-induced contractions in guinea pig ileum. Kind of data set: Inhibition of histamine-induced contractions in guinea pig ileum (Assay 3). The conditions noted are these: Cavia porcellus, histamine 1.7 μM, read-out: Inhibition of histamine-induced contraction (%). The procedure, abridged:
as §1

Data set [3] addresses T1, TRPV1 receptor (Rattus norvegicus, UniProt O35433). The data set is described as follows: TRPV1 modulation in DRG neurones: CGRP release in absence and presence of capsaicin (Assay 2). In kind it is cell-based. On the set-up: The culture used for this experiment contained sensory neurones, Schwann cells and fibroblasts; endogenous in cells; host or cells: primary rat DRG sensory neurone culture (with Schwann cells and fibroblasts). The conditions noted are these: 20 min; for inhibition at 3 µM: 3 μM with capsaicin 1 μM; for inhibition at 3 µM / inhibition at 30 µM: −ve: inhibition, +ve: potentiation of capsaicin response, read-out: Effect of test compounds on capsaicin (1 μM)-induced CGRP release (%); for inhibition at 30 µM: 30 μM with capsaicin 1 μM; for Emax at 3 µM: test compound alone 3 μM; for Emax at 3 µM / Emax at 30 µM: rat DRG sensory neurones, read-out: CGRP release (% of capsaicin (1 μM) response); for Emax at 30 µM: test compound alone 30 μM.

The target of data set [4] is T1, TRPV1 receptor. Kind of data set: TRPV1 receptor modulation in the rat vas deferens, EFS-induced contraction (Assay 1). The conditions noted are these: electrical field stimulation, read-out: Inhibition of EFS response relative to capsaicin. As to the method: Wistar derived male rats (275±25 g) were suppressed by CO2 overexposure. The vas deferens was removed, placed in Krebs solution, pH 7.4 (composition in g/l: NaCl 6.89, KCl 0.35, CaCl2 0.277, KH2PO4 0.163, MgSO4.7H2O 0.296, NaHCO3 2.1 glucose 1.8) and excess fat and connective tissue removed. The portion of the vas deferens closest to the prostate was cut in half and each half was placed under 1 g tension in a 10 ml bath containing Krebs solution at 32° C. The tissue was contracted by electrical field stimulation (EFS; 60% of maximum stimulation, 0.015 Hz, 0.5 ms in duration) and contractile responses were measured.

Data set [5] relates to IL-1α-induced PGE2 release. The data set is described as follows: IL-1α-induced PGE2 release in human diploid lung fibroblasts (WI-38) (Assay 5). In kind it is cell-based. The conditions noted are these: Homo sapiens, WI-38 cells, IL-1α 1 nM, overnight. In short, it runs like this:
(§2)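 Cell viability was read by Alamar Blue fluorescence (530/590 nm) after 4 h at 37 °C, following an overnight 37 °C incubation of human lung fibroblasts with 1 nM IL-1α and compound (3 or 30 μM) in 10% FBS MEM, pH 7.3. Supernatant PGE2 was measured by radioimmunoassay to derive percent inhibition.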

The target in a further data set is T2, 5-lipoxygenase (Homo sapiens, UniProt P09917).
T2 construct: endogenous in cells; host or cells: human peripheral blood mononuclear leukocytes (PBMLs)
T2 sequence (P09917 1-674): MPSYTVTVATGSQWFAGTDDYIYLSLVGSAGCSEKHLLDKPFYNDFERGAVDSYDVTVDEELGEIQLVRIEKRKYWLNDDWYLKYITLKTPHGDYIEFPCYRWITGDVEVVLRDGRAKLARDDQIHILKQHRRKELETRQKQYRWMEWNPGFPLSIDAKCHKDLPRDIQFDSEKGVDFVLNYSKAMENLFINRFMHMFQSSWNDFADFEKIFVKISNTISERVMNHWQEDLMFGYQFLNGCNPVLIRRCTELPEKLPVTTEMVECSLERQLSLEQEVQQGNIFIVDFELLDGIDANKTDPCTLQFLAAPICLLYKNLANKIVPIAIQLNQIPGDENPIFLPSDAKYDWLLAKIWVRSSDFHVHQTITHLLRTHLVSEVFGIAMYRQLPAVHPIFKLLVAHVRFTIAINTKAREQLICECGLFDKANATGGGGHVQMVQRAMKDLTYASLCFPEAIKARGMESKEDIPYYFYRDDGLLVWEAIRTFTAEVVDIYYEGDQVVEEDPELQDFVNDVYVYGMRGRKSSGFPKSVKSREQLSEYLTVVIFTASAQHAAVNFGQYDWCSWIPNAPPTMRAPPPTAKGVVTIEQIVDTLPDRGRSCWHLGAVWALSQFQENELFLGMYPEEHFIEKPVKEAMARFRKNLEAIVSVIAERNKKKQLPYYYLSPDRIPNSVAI
The data set is described as follows: 5-lipoxygenase activity (LTB4) in human peripheral blood mononuclear leukocytes (Assay 6). The class given is cell-based. The note with it: human PBMLs, A23187 30 μM, read-out: Inhibition of 5-LO (%). In short, it runs like this:
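LTB4 in supernatant quantified by EIA after 15 min at 37° C. in HBSS, pH 7.4, where Ficoll-isolated human PBMLs (5×10^6) received ionophore A23187 (30 μM) and test compound (3 and 30 μM) or 0.1% DMSO vehicle.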

Another data set relates to WI-38 cells. Kind of data set: Viability of WI-38 cells, Alamar Blue (Assay 5). The class given is cell-based, human. In short, it runs like this: as §2
A general note: Resazurin is reduced to fluorescent resorufin, in cell work by metabolically active cells.

T1 sequence (O35433 whole entry): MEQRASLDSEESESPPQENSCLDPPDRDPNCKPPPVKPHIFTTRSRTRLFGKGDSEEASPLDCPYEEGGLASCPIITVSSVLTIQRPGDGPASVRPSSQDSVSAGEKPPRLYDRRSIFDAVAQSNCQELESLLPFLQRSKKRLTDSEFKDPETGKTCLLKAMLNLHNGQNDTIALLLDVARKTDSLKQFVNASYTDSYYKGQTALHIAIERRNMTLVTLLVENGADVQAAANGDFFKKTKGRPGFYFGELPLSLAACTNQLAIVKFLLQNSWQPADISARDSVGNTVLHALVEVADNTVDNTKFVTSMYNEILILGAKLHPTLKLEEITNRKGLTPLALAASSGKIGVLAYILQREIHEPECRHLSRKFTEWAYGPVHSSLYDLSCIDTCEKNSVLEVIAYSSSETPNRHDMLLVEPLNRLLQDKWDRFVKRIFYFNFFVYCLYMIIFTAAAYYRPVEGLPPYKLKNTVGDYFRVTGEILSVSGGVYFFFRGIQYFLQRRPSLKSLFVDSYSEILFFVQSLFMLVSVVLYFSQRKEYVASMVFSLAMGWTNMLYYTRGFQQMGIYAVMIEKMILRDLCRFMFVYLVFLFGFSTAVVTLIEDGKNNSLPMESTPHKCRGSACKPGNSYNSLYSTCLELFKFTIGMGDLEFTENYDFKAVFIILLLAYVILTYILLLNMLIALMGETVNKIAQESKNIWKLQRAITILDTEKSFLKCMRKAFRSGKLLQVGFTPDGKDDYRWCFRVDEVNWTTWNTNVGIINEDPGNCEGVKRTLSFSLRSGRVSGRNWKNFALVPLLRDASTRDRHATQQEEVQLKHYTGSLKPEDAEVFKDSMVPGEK

Regarding `COc1cc(CCC(=O)CC(=O)C2(C)CC2)ccc1O` [Compound 6, 5-(4-Hydroxy-3-methoxyphenyl)-1-(1-methylcyclopropyl)-pentane-1,3-dione], the inhibition at 3 µM is 0% in data set [1]; 0% in data set [2]; 15% at TRPV1 receptor [3]; 88% in data set [5]; 47% at 5-lipoxygenase. Besides, the inhibition at 30 µM in data set [1] was 34%; in data set [2], 12%; on TRPV1 receptor [3], 28%; in data set [5], 102%; on 5-lipoxygenase it was 78%. On TRPV1 receptor [3], the Emax at 3 µM stood at 52%. Also, the Emax at 30 µM on TRPV1 receptor [3] turned out to be 49%. For the same molecule, the Emax at TRPV1 receptor [4] was found to be 24%. The “Decrease in cell viability (%)” value in the data set on WI-38 cells (3 μM) was found to be 6%; in the data set on WI-38 cells (30 μM), 4%.

As for `COc1cc(CCC(=O)C(C)(C)C(=O)c2ccccc2)ccc1O` [Compound 32, 2,2-Dimethyl-5-(4-hydroxy-3-methoxy-phenyl)-1-phenyl-pentane-1,3-dione], the inhibition at 3 µM in data set [1] came to 9%; in data set [2], 15%; on TRPV1 receptor [3] it was 47%; in data set [5], 67%; at 5-lipoxygenase, 45%. Further, the inhibition at 30 µM in data set [1] was found to be 93%; in data set [2], 89%; on TRPV1 receptor [3], 40%; in data set [5], 101%; on 5-lipoxygenase, 96%. Also, at TRPV1 receptor [3], the Emax at 3 µM was determined as 22%. The Emax at 30 µM on TRPV1 receptor [3] stood at 21%. Besides, the results for the “Decrease in cell viability (%)” value in the data set on WI-38 cells (3 μM) and in the data set with WI-38 cells (30 μM) were −4% and −3%, respectively.

For `COc1cc(CCC(=O)C(C)C(=O)c2ccccc2)ccc1O` (centres unmarked) [Compound 11, 5-(4-Hydroxy-3-methoxy-phenyl)-2-methyl-1-phenyl-pentane-1,3-dione], the inhibition at 3 µM is 0% in data set [1]; 0% in data set [2]; 8% at TRPV1 receptor [3]; 79% in data set [5]; 47% at 5-lipoxygenase. Also, the inhibition at 30 µM in data set [1] came to 53%; in data set [2], 32%; at TRPV1 receptor [3] it was 12%; in data set [5] it was 100%; on 5-lipoxygenase, 92%. Further, the Emax at 3 µM on TRPV1 receptor [3] stood at 24%. Besides, the Emax at 30 µM at TRPV1 receptor [3] worked out at 111%. Further, the Emax on TRPV1 receptor [4] was found to be 68%. The “Decrease in cell viability (%)” value in the data set with WI-38 cells (3 μM) is 1%; in the data set on WI-38 cells (30 μM), −7%.

Turning to `COc1cc(CCC(=O)CC(=O)C(C)(C)C)ccc1O` [Compound 2, 6,6-Dimethyl-1-(4-hydroxy-3-methoxyphenyl)-heptane-3,5-dione], the inhibition at 3 µM in data set [1] is 8%; in data set [2], 0%; on TRPV1 receptor [3], -46%; in data set [5], 88%; at 5-lipoxygenase, 30%. Also, the inhibition at 30 µM in data set [1] is 79%; in data set [2], 28%; on TRPV1 receptor [3] it was -8%; in data set [5] it was 102%; at 5-lipoxygenase it was 76%. The Emax at 3 µM at TRPV1 receptor [3] was determined as 20%. Moreover, the Emax at 30 µM on TRPV1 receptor [3] was 117%. The Emax at TRPV1 receptor [4] was determined as 96%. Also, the entries for the “Decrease in cell viability (%)” value with WI-38 cells (3 μM) and in the data set on WI-38 cells (30 μM) were −2% and 4%, respectively.

With `COc1cc(CCC(=O)CC(=O)c2ccccc2)ccc1O` [Compound 69, 5-(4-Hydroxy-3-methoxyphenyl)-1-phenyl-pentane-1,3-dione], the inhibition at 3 µM in data set [1] was 9%; in data set [2], 9%; at TRPV1 receptor [3], -49%; in data set [5] it was 89%; on 5-lipoxygenase it was 89%. Also, the inhibition at 30 µM in data set [1] is 63%; in data set [2], 41%; at TRPV1 receptor [3] it was 23%; in data set [5] it was 102%; at 5-lipoxygenase, 96%. The Emax at 3 µM on TRPV1 receptor [3] is 49%. For the same molecule, the Emax at 30 µM on TRPV1 receptor [3] amounted to 36%. For the same molecule, the Emax at TRPV1 receptor [4] was found to be 38%. In addition, the figures for the “Decrease in cell viability (%)” value with WI-38 cells (3 μM) and in the data set with WI-38 cells (30 μM) were 3% and 4%, respectively.
